Measurements from patent US20200308165A1, “Compounds as Ras Inhibitors and Use Thereof” (D.E. Shaw Research, LLC, priority 2017, published 2020).

Tests used:
KRAS4B (wild type) = target: T1, KRAS4B (wild type) (Homo sapiens, UniProt P01116); experiment: K-Ras Nucleotide Exchange Assay-384 (SOS Exchange Assay by Cytoskeleton, GTPx_Cyt_IC50); type: biochemical; conditions: 1 μM KRAS4B, 0.05 μM SOS1, 1.5 μM mant-GDP
T1 construct: purchased Cytoskeleton CS-RS03 (K-Ras4B); CS-SOS1-A (SOS1)
Procedure: Example 16. Evaluation of Biological Activities: K-Ras Nucleotide Exchange Assay-384 (SOS Exchange Assay by Cytoskeleton (GTPx_Cyt_IC50))
This assay is used to evaluate inhibitors of K-ras, by monitoring the inhibition of nucleotide exchange over time, in the presence of the protein SOS.
384-well black, untreated plates (Corning 3820 with NBS or 3821 untreated) were used. K-Ras4B Protein was used, which is wild-type (Cytoskeleton #CS-RS03) with a concnetration of 5 mg/ml, or 200 μM. Human SOS1 Protein, Exchange Domain 564-1049 (Cytoskeleton # CS-SOS1-A) was used in a concentration of 3.03 mg/ml or 50 μM. Mant-GDP triethylammonium salt solution was purchased from Sigma (catalog No. 69244). 1M stock solution of Hepes was purchased from Sigma (catalog No. H9897). 1M stock solution of MgCl2 was purchased from Sigma (catalog No. M4880). CHAPS, 3% was purchased from Sigma (catalog No. C5070). Nonidet P40 was purchased from Sigma. KOH pellets were purchased from Sigma.
K-ras buffer containing 40 mM Hepes, 10 mM MgCl2, 0.05% CHAPS, 0.01% NP40 with a pH 7.5 was prepared as follows: to a Buffer base containing 4 ml 1M Hepes, 1 ml MgCl2,
93.3 ml d-H2O, pH 7.5 (with KOH pellets), 1.7 ml 3% CHAPS was added, followed by the addition of 1 ml 1% NP40.
Final Conditions of the method included 1 μM KRAS4B (wild type), 0.05 μM SOS1, 1.5 μM mant-GDP. Reagent Preparation included: thawing aliquots of KRAS, SOS, and mant-GDP; preparing 3x KRAS (3 uM) in assay buffer; preparing 3x SOS/mant-GDP (150 nM/4.5 uM) in assay buffer; and preparing 3x compounds in assay buffer.
Assay Procedure (1536) used 3.3 μl, 3x Kras, 3.3 μl 3x compound with preincubate 0 hour, and […] 3x SOS/mant-GDP. A kinetic read measuring fluorescence at 360_450 was performed for 30 min at 30 second intervals.
Reference compound SCH 54292 (reversible inhibitor) at about 100 μM was used with no preincubation. Reagents were only stable for 45 min on ice, and therefore were prepared fresh before each assay. Partial plates (up to 9 columns) were run at a time to minimize effects due to the amount of time it takes to read a whole plate. SOS/mant-GDP were added with an automated pipettor to initiate all reactions at the same time. Assay was typically performed at 0.5% solution in DMSO (compounds prepared in 1.5% DMSO initially).
Clariostar Settings were as follows. Test Name was Kras Kinetic 360-450. Basic settings of the test included Measurement type as Fluorescence (FI), and Microplate name as Corning 3820. Plate mode settings included 61 cycles, 30 second cycle time, and 10 flashes per well. Optic settings were as follows. Excitation wavelength was 360 nm. Emission wavelength was 450 nM. Excitation bandwidth was 12 nm. Emission bandwidth was 12 nm. Dichroic filter 405 was used. D6 Well(s) was used for gain adjustment. No shaking was used. General settings were as follows. Top optic was used. Settling time was 0.1 second. Reading direction was bidirectional, horizontal left to right, and bottom to top. The target temperature was 25° C.

Ras protein [1] = target: T2, Ras protein (Homo sapiens, UniProt P01116); experiment: GDPx_Icagen_IC50: SOS1-mediated guanine nucleotide exchange rate of Ras (mant-GDP); type: biochemical; conditions: SOS1-initiated exchange
T2 sequence (P01116 1-188 isoform P01116-2): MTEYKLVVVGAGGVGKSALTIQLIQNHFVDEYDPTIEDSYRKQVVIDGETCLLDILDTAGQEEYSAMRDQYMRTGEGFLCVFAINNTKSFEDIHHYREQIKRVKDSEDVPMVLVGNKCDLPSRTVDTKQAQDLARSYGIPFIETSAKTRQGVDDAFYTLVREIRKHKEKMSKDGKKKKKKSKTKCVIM
Excerpt: (§1) In some embodiments, the IC50 assay measures the reduction effect of a given compound on the guanine nucleotide-echange rate of Ras protein in the presence of guanine nucleotide exchange protein SOS1, which is a Ras activator. In the assay GDP-loaded Ras was first prepared in a buffer containing the compound at certain concentration and fluorescent guanine nucleotide (mant-GDP (used in Icagene assay) or mant-GTP (used in other IC50 assays). The guanine nucleotide exchange was initiated by the addition of the SOS1 and its rate was reflected in the rate of fluorescence change as a function of time, which was monitored by a reader. The experiment was repeated at different compound concentrations and the IC50 of the compound was defined as the compound concentration at which half of its maximal reduction effect on the guanine nucleotide exchange rate is achieved. In other embodiments, other Ras activator proteins may be used. Non-limiting examples of other Ras activator proteins include RasGRP (Ras guanyl-releasing protein).
Example 17. Evaluation of Biological Activities: GDPx_Icagen_ICso
as §1, with “The IC50” for “In some embodiments, the IC50”, “guanine nucleotide-exchange” for “guanine nucleotide-echange”, “Ras is” for “Ras was”, “nucleotide (mant-GDP).” for “nucleotide (mant-GDP (used in Icagene assay) or mant-GTP (used in other IC50 assays).”, “achieved.” for “achieved. In other embodiments, other Ras activator proteins may be used. Non-limiting examples of other Ras activator proteins include RasGRP (Ras guanyl-releasing protein).”

Ras protein [2] = target: T2, Ras protein; experiment: Nucleotide exchange rate IC50 assay (SOS1, mant-GDP), Example 18; type: biochemical
Excerpt: as §1, with “The IC50” for “In some embodiments, the IC50”, “guanine nucleotide-exchange” for “guanine nucleotide-echange”, “Ras is” for “Ras was”, “nucleotide (mant-GDP).” for “nucleotide (mant-GDP (used in Icagene assay) or mant-GTP (used in other IC50 assays).”, “achieved.” for “achieved. In other embodiments, other Ras activator proteins may be used. Non-limiting examples of other Ras activator proteins include RasGRP (Ras guanyl-releasing protein).”

GDP-loaded K-Ras = GDP-loaded K-Ras (Homo sapiens, UniProt P01116); experiment: Thermophoresis binding assay
Sequence of GDP-loaded K-Ras (P01116 1-188 isoform P01116-2): as above
Procedure: The thermophoresis binding assay measures the changes in the movement of KRAS along a temperature gradient as a result of compound binding. In this assay, K-Ras is fluorescently labeled and the thermophoretic movement is measured by monitoring the fluorescence distribution inside a capillary. Compounds of varies concentrations were titrated and the fluorescence distribution signal was measured after 30 seconds or until the diffusion equilibrium is stable. The apparent binding affinity Kd is calculated by fitting the normalized fluorescence distribution values along the concentration axis.

T1 sequence (P01116 1-188 isoform P01116-2): as above

Cc1nnc(SCc2cc(=O)n(-c3nc4ccccc4s3)[nH]2)s1 [Compound 187, 2-(benzo[d]thiazol-2-yl)-5-(((5-methyl-1,3,4-thiadiazol-2-yl)thio)methyl)-1,2-dihydro-3H-pyrazol-3-one] was tested, and the IC50 (KRAS4B (wild type)) was 500000 nM and the IC50 (Ras protein [1]) was 21000 nM.
In the case of Cc1nnc(SCc2[nH]n(-c3nc4ccccc4[nH]3)c(=O)c2C)s1 [Compound 188, 2-(1H-benzo[d]imidazol-2-yl)-4-methyl-5-(((5-methyl-1,3,4-thiadiazol-2-yl)thio)methyl)-1,2-dihydro-3H-pyrazol-3-one], the IC50 (Ras protein [2]) is reported as ~800 nM and the Kd (GDP-loaded K-Ras) is reported as 520 nM.
COC(=O)c1ccc2[nH]c(-n3[nH]c(CSc4nnc(C)s4)c(C)c3=O)nc2c1 [Compound 189, methyl 2-(4-methyl-3-(((5-methyl-1,3,4-thiadiazol-2-yl)thio)methyl)-5-oxo-2,5-dihydro-1H-pyrazol-1-yl)-1H-benzo[d]imidazole-5-carboxylate] showed an IC50 (Ras protein [2]) of ~700 nM and a Kd (GDP-loaded K-Ras) of 413 nM.
